How the values were obtained:
[1] = target: T1, Procathepsin L (Homo sapiens, UniProt P07711); test: Inhibition of human cathepsin L assessed as on rate constant
[2] = Inhibition of Leishmania mexicana CPB delta CTE mutant using Z-Phe-Arg-7-amido-4-methylcoumarin as substrate preincubated for 2 mins followed by substrate addition by fluorimetric assay
[3] = target: cathepsin L (Procathepsin L) (Homo sapiens, UniProt P07711); test: Inhibition of human cathepsin L assessed as off rate constant; details: human cathepsin L enzyme, read-out: K
[4] = tested on: Leishmania mexicana; test: Inhibition of Leishmania mexicana CPB delta CTE mutant assessed as off rate constant
[5] = target: T1, Procathepsin L; test: Inhibition of human cathepsin L using Z-Phe-Arg-7-amido-4-methylcoumarin as substrate preincubated for 2 mins followed by substrate addition by fluorimetric assay
[6] = target: Cruzipain (Trypanosoma cruzi) (UniProt P25779); test: Inhibition of recombinant Trypanosoma cruzi cruzain assessed as off rate constant
[7] = target: Cruzipain (Trypanosoma cruzi) (UniProt P25779); test: Inhibition of recombinant Trypanosoma cruzi cruzain assessed as on rate constant
[8] = tested on: Leishmania mexicana; test: Inhibition of Leishmania mexicana CPB delta CTE mutant assessed as on rate constant
[9] = target: Cruzipain (Trypanosoma cruzi, UniProt P25779); test: Inhibition of recombinant Trypanosoma cruzi cruzain using Z-Phe-Arg-7-amido-4-methylcoumarin as substrate preincubated for 2 mins followed by substrate addition by fluorimetric assay
Sequence of Cruzipain (P25779 whole entry): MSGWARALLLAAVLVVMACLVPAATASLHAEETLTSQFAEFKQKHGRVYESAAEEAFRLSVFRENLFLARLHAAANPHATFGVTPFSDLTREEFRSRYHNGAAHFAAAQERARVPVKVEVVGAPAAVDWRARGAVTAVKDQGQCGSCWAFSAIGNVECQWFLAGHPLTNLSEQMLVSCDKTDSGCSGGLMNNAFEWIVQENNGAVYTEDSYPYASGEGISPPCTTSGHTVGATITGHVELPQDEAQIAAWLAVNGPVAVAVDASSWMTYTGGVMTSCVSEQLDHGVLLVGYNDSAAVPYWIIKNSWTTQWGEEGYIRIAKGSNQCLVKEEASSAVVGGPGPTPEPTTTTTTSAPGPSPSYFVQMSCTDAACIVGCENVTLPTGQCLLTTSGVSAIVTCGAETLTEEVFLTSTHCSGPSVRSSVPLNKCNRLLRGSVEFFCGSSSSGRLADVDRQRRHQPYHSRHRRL

T1 sequence (P07711 whole entry): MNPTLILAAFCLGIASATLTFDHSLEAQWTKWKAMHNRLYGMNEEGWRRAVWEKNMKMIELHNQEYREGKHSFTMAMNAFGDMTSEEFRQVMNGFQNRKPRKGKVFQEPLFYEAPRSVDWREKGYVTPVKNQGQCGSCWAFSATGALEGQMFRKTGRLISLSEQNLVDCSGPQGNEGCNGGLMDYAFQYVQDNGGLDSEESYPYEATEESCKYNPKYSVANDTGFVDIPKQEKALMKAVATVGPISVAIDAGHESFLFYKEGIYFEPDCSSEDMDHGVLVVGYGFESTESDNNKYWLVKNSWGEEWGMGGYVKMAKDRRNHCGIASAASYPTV
Sequence of Cruzipain (Trypanosoma cruzi) (P25779 123-467 limits assumed): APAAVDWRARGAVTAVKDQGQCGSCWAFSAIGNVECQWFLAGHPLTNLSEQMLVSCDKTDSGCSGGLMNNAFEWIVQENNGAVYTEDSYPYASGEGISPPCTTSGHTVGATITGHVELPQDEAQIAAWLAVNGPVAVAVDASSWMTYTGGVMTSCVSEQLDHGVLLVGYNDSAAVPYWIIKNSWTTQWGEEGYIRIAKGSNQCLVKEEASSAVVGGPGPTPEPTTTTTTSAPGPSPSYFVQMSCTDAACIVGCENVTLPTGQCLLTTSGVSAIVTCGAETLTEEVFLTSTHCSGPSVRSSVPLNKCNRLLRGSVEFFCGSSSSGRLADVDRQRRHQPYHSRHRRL
Sequence of cathepsin L (Procathepsin L) (P07711 whole entry): as the sequence (P07711 whole entry) above

Row | SMILES | pKi [2] | Ki [5] | Ki [9] | other results
1 | CN(C#N)N(C)C(=O)[C@H](Cc1ccccc1)NC(=O)c1cc(C(C)(C)C)nn1C | 9.7 | 0.126 nM |  | K [1]: 700000 M⁻¹ s⁻¹; koff [3]: 8e-08 s⁻¹; K [4]: 0.2 10^-6/s; K [6]: 12 10^-6/s; K [7]: 7.7e+06 M⁻¹ s⁻¹; K [8]: 1 10^-6/M/s
2 | CC(C)(C)OC(=O)N[C@@H](Cc1ccccc1)C(=O)NCC#N | 5.8 |  | 2510 nM | 
3 | N#CCNC(=O)[C@@H](Cc1ccccc1)NC(=O)c1ccccc1 | 5.9 | 1580 nM | 6310 nM | 
4 | N#CCNC(=O)[C@H](Cc1ccc(OC(=O)c2ccccc2)cc1)NC(=O)c1ccccc1 | 6.9 | 251 nM |  | 
5 | CC(C)C[C@H](NC(=O)C(F)(F)c1ccccc1)C(=O)NC1(C#N)CC1 | 6.8 | 31.6 nM | 63.1 nM | 
6 | N#CCNC(=O)[C@H](Cc1ccccc1)NC(=O)c1c[nH]c(=O)[nH]c1=O | 6.5 | 1000 nM | 1260 nM | 
7 | CC(C)(C#N)NC(=O)[C@H](Cc1ccccc1)NC(=O)c1ccccc1 | 5.7 | 631 nM |  | 
8 | N#CCNC(=O)[C@H](Cc1ccc(O)cc1)NC(=O)c1ccccc1 | 5.7 | 79.4 nM |  | 
9 | CC(C)C[C@H](NC(=O)C(C)(C)c1ccccc1)C(=O)NC1(C#N)CC1 | 6.4 | 39.8 nM | 158 nM | 
10 | CC(C)C[C@H](NC(=O)C1(c2ccccc2)CCC1)C(=O)NC1(C#N)CC1 | 7.6 | 5.01 nM | 20 nM | 
11 | CC(C)C[C@H](NC(=O)c1cc(C(C)(C)C)nn1C)C(=O)NC1(C#N)CC1 | 8.3 | 12.6 nM |  | 
12 | CC(C)C[C@H](NC(=O)OC(C)(C)C)C(=O)NC1(C#N)CC1 | 6.3 | 631 nM |  | 
13 | N#CCNC(=O)[C@H](Cc1c[nH]c2ccccc12)NC(=O)c1ccccc1 | 6.1 | 50.1 nM |  | 
14 | N#CCNC(=O)[C@H](Cc1ccccc1)NC(=O)c1cncnc1 | 6.2 | 1000 nM | 5010 nM | 
15 | CC(C)C[C@H](NC(=O)c1cc(C(C)(C)C)nn1C)C(=O)NCC#N | 7.6 | 25.1 nM |  | 
16 | N#CCNC(=O)[C@H](Cc1cccc(Cl)c1)NC(=O)c1ccccc1 | 5.2 | 20 nM |  | 
17 | N#CCNC(=O)[C@H](Cc1ccccc1)NC(=O)c1ccco1 | 6.3 | 501 nM |  | 
18 | Cn1nc(C(F)(F)F)cc1C(=O)N[C@@H](Cc1ccccc1)C(=O)NCC#N | 7 | 25.1 nM | 501 nM | 

Row | SMILES | pKi [2] | Ki [5] | Ki [9] | other results
19 | N#CCNC(=O)[C@H](Cc1ccccc1)NC(=O)OCc1ccccc1 | 6.6 | 126 nM |  | 
20 | N#CCNC(=O)[C@H](Cc1ccccc1)NC(=O)c1cncc(Br)c1 | 6.9 | 10 nM | 158 nM | 
21 | N#CCNC(=O)C1(NC(=O)c2ccccc2)CCCC1 | 4.3 | 10000 nM |  | 
22 | CC(C)C[C@H](NC(=O)OC(C)(C)C)C(=O)NCC#N | 5.8 | 2510 nM |  | 
23 | CC(C)C[C@H](NC(=O)Cc1ccccc1)C(=O)NC1(C#N)CC1 | 7.2 | 63.1 nM | 39.8 nM | 
24 | Cn1nc(C(C)(C)C)cc1C(=O)N[C@@H](Cc1cccc(Cl)c1)C(=O)NCC#N | 6.6 | 1.26 nM |  | 
25 | N#CCNC(=O)[C@H](Cc1ccccc1)NC(=O)c1cccs1 | 6.4 | 501 nM |  | 
26 | CC(C)C[C@H](NC(=O)c1cc(C(C)(C)C)nn1C)C(=O)N(C)N(C)C#N | 9.7 | 0.501 nM |  | K [4]: 0.04 10^-6/s; K [8]: 0.22 10^-6/M/s
27 | CC[C@@H](C)[C@H](NC(=O)c1ccccc1)C(=O)NC1(C#N)CC1 | 5.5 | 3160 nM | 25100 nM | 
28 | CC(C)C[C@H](NC(=O)C1(c2ccccc2)CC1)C(=O)NC1(C#N)CC1 | 7.2 | 5.01 nM | 25.1 nM | 
29 | N#CCNC(=O)[C@H](Cc1ccccc1)NC(=O)c1ccccc1 | 6.6 | 126 nM |  | 
30 | N#CC1(NC(=O)C2(NC(=O)c3ccccc3)CCCC2)CC1 | 5.2 | 3980 nM | 12600 nM | 
31 | N#CCNC(=O)[C@H](Cc1ccccc1)NC(=O)c1cnccn1 | 6.2 | 1000 nM | 6310 nM | 
32 | CC(C)C[C@H](NC(=O)c1ccccc1)C(=O)NC1(C#N)CC1 | 6.8 |  |  | 
33 | CC(C)(C)OC(=O)N[C@@H](Cc1cccc(Cl)c1)C(=O)NCC#N | 5.2 | 251 nM |  | 
34 | Cn1nc(C(C)(C)C)cc1C(=O)N[C@@H](Cc1ccccc1)C(=O)NCC#N | 7.4 | 3.98 nM |  | 
35 | Cn1nc(C(C)(C)C)cc1C(=O)N[C@@H](Cc1ccccc1)C(=O)NC1(C#N)CC1 | 7.3 | 5.01 nM |  | 
36 | N#CC1(NC(=O)[C@H](Cc2ccccc2)NC(=O)c2ccccc2)CC1 | 6.8 | 50.1 nM |  | 
